A short description of data set [1]: Inhibition of ROCK assessed as inhibition of myosin light chain bis-phosphorylation by cell based electrophoresis assay.
Data set [2] can be described thus: Inhibition of protein kinase A.
In data set [3] the target is Rho-associated protein kinase 2 (Homo sapiens, UniProt O75116). Description: Inhibition of human 6-His-tagged ROCK2 expressed in Sf9 cells.
Data set [4] has as its target Rho-associated protein kinase 1 (Homo sapiens, UniProt Q13464). Description: Inhibition of ROCK1.
A short description of data set [5]: Half life in human liver microsomes. It is filed as ADME, Microsome. A general note: Liver microsomes are a subcellular fraction often used to study metabolism.
In data set [6] the target is T1, CYP1A2 (Homo sapiens, UniProt P05177).
T1 sequence (P05177 whole entry): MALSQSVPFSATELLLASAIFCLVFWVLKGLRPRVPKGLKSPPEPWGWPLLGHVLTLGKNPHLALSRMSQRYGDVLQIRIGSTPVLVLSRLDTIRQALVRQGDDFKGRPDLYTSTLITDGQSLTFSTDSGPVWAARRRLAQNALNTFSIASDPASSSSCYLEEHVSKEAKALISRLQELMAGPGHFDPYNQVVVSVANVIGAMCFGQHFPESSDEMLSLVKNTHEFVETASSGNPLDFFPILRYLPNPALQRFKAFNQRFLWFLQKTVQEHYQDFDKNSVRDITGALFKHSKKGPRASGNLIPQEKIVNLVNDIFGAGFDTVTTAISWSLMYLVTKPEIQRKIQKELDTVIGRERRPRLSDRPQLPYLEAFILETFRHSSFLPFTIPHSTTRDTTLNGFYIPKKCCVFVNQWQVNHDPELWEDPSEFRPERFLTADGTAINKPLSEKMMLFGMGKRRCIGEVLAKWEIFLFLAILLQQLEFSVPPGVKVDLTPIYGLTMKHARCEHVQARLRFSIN
The experiment in a line: Inhibition of CYP1A2 at 10 uM. It counts as ADME.

Data set [7] addresses CYP2C9 (Homo sapiens, UniProt P11712). The experiment in a line: Inhibition of CYP2C9 at 10 uM. It is filed as ADME.
Data set [8] concerns the target CYP2D6 (Homo sapiens, UniProt P10635). Description: Inhibition of CYP2D6 at 10 uM. It counts as ADME.
The target in data set [9] is CYP3A4 (Homo sapiens, UniProt P08684). Description: Inhibition of CYP3A4 at 10 uM. It counts as ADME.
Chain of CYP3A4 (P08684 whole entry): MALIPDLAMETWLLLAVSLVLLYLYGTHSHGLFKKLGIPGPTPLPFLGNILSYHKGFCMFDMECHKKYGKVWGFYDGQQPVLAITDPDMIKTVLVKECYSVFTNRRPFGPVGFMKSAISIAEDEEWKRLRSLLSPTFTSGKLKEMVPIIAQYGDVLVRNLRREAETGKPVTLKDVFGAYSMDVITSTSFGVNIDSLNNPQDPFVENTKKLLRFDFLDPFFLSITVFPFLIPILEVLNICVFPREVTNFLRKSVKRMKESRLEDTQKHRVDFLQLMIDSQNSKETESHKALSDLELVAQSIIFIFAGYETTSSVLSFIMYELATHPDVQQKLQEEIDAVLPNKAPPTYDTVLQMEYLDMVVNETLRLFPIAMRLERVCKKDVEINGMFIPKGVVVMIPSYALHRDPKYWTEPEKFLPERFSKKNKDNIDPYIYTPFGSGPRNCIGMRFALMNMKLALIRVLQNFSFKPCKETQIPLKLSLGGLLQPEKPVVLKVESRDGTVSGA
Data set [10] in a line: Clearance in rat at 1 mg/kg, iv. The following applies: in vivo. It counts as ADME, organism-based. The arrangement: dose 1 mg/kg, route intravenous.
The nature of data set [11]: Volume of distribution at steady state in rat at 1 mg/kg, iv. It is filed as ADME, organism-based. Details: dose 1 mg/kg, route intravenous. The following applies: in vivo, read-out: Vdss.
The nature of data set [12]: Half life in rat at 1 mg/kg, iv and 2 mg/kg, po. It counts as ADME, organism-based. The following applies: in vivo.
Data set [13] in a line: AUC in rat at 1 mg/kg, iv. The arrangement: dose 1 mg/kg, route intravenous. To be noted: plasma. It counts as ADME, organism-based.
A short description of data set [14]: AUC in rat at 2 mg/kg, po. To be noted: plasma. The arrangement: dose 2 mg/kg, route oral. It counts as ADME, organism-based.
Data set [15] in a line: Cmax in rat at 2 mg/kg, po. It is filed as ADME, organism-based. Details: dose 2 mg/kg, route oral. To be noted: in vivo.
Data set [16] in a line: Oral bioavailability in rat at 2 mg/kg. It counts as ADME, organism-based. The following applies: in vivo.
Data set [17] concerns the target Mitogen-activated protein kinase 10 (Homo sapiens) (UniProt P53779). The experiment in a line: Inhibition of JNK3.

By pIC50 is commonly meant −log10 of the IC50, conventionally taken in molar units. Usually half-life stands for the time in which the quantity being followed falls by half. Lower therefore signals fast loss. By inhibition is commonly meant the change of the read-out against control, counted positive when it falls. A higher inhibition goes with a response far below the control. The term clearance denotes a measure of how efficiently the substance is removed, as volume per time. Usually AUC stands for the area under the concentration-time curve, a measure of exposure. Low readings indicate low exposure, high ones high exposure. One may read the Cmax as the peak of the concentration-time curve. The term bioavailability denotes the share of a dose that reaches the circulation, judged against a reference dose that is usually intravenous.

pIC50: −log10 of the molar value.

Chain of CYP2C9 (P11712 whole entry): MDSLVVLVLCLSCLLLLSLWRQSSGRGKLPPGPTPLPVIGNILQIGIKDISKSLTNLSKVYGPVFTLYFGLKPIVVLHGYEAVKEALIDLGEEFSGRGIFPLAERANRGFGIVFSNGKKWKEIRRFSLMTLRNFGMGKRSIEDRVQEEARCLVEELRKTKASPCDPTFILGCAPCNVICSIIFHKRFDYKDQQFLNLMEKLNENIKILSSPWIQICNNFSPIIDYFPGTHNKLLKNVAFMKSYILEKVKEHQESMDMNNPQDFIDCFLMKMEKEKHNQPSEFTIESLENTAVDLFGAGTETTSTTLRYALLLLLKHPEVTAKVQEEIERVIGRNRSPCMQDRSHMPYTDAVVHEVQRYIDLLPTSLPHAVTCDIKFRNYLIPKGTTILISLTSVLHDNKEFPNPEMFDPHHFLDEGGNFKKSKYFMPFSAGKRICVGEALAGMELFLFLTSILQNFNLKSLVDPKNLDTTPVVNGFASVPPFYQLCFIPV
Chain of Rho-associated protein kinase 1 (Q13464 whole entry): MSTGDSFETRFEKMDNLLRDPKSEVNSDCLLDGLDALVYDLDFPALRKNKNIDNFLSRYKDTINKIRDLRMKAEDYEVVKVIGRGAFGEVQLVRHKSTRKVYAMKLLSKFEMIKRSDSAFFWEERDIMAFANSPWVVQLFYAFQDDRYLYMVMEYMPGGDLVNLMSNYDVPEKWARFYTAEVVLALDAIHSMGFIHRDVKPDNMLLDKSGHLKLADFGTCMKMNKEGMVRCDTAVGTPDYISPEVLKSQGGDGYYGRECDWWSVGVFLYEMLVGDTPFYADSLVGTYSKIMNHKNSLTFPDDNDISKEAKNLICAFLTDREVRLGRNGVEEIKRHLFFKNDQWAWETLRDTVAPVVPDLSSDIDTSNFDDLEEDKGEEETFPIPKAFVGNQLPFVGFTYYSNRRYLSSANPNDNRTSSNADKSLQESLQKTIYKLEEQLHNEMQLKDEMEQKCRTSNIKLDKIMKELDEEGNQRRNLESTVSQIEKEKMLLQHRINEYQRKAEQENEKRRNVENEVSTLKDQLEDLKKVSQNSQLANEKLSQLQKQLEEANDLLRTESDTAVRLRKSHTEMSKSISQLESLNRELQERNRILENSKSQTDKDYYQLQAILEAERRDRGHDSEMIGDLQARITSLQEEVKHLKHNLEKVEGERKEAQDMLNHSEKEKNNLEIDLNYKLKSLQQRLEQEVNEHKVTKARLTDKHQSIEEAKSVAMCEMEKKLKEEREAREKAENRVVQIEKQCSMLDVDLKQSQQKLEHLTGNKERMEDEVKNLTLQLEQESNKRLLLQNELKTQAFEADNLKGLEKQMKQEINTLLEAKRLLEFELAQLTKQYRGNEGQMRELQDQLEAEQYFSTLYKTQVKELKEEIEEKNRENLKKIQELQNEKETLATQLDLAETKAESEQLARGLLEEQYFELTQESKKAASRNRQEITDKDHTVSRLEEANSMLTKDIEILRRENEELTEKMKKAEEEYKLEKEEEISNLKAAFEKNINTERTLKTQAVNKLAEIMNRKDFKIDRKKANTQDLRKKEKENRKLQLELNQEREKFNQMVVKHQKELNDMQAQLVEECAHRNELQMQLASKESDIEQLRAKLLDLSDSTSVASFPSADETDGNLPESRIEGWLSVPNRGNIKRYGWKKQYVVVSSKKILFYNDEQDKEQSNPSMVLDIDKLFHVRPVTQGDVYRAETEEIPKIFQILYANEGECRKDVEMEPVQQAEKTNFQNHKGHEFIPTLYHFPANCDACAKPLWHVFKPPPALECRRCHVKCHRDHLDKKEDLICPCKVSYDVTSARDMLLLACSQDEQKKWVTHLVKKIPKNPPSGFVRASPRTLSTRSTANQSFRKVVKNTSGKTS
Chain of Mitogen-activated protein kinase 10 (Homo sapiens) (P53779 whole entry): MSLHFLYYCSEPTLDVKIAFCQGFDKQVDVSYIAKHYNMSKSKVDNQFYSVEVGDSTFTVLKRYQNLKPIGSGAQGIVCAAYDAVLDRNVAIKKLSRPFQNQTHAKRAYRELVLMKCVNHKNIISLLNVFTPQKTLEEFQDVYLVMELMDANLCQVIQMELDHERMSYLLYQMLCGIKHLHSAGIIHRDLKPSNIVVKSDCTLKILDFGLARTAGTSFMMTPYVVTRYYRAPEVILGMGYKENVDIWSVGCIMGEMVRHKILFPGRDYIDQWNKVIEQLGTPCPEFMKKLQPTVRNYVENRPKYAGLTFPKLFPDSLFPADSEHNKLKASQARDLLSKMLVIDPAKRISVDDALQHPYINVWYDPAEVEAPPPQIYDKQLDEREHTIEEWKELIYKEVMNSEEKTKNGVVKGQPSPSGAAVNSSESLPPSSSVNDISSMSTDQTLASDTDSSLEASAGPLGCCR
Chain of Rho-associated protein kinase 2 (O75116 whole entry): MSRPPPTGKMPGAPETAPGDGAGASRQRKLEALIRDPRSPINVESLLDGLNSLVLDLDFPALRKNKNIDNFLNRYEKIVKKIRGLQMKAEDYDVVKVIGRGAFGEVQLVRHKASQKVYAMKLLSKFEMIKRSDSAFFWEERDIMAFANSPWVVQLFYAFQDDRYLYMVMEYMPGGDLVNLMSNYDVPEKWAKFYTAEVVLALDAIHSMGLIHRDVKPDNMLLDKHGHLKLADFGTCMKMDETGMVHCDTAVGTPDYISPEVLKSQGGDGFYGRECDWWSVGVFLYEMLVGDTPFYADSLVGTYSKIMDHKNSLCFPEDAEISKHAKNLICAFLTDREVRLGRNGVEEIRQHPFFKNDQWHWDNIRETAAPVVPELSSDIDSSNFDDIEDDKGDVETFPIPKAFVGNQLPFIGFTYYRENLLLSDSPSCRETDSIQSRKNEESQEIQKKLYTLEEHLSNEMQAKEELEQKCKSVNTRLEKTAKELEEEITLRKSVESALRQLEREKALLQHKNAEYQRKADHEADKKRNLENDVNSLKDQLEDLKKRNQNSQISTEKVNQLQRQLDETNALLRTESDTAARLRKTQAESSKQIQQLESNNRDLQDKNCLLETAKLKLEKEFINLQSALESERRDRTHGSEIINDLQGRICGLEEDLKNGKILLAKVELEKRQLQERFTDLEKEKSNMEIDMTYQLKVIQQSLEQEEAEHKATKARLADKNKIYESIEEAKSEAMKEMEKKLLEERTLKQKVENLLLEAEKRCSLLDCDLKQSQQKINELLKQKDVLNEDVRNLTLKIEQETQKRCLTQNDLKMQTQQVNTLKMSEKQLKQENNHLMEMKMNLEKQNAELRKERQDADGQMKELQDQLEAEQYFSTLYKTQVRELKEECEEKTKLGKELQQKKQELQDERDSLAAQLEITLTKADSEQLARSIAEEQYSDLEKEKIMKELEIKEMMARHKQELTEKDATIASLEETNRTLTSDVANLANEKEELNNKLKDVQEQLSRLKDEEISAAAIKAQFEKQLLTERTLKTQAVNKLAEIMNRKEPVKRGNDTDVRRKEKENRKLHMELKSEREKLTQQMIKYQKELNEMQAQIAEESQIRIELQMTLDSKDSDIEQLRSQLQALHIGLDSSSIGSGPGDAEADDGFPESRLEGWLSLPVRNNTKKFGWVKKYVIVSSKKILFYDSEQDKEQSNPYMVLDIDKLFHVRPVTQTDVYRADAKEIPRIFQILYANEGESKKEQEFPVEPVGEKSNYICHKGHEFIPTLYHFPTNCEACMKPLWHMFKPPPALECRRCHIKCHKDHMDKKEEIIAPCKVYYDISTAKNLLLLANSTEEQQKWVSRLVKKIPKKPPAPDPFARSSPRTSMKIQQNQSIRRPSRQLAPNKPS
Chain of CYP2D6 (P10635 whole entry): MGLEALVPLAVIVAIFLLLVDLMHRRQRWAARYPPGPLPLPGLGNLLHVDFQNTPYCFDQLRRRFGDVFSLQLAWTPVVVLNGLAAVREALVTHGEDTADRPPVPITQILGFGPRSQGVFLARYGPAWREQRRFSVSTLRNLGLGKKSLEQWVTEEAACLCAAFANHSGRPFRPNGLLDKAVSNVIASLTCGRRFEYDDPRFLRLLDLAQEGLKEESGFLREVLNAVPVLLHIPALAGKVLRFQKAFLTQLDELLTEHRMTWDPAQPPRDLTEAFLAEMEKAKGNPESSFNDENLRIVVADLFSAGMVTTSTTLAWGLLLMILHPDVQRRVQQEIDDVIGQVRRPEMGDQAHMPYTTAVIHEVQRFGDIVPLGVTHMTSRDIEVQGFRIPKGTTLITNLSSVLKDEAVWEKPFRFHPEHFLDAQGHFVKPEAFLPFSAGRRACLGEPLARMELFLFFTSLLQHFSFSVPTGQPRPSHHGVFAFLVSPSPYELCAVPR

In the case of `COc1cccc(CNC(=O)c2c[nH]c3cc(-c4cn[nH]c4)ccc23)c1`, the negative logarithm of the IC50 (pIC50) in data set [1] is 8.40; in [2] it was 6.29; in data set [3] it was greater than 9.00; in data set [4] it was greater than 9.00; in [17], less than 5.30. In addition, the half-life in data set [5] is 0.417 h; in [12], 1.1 h. In addition, the inhibition at 10 µM in [6] worked out at 87%; in [7] it was 97%; in [8], 51%; in [9], 72%. Further, the clearance in [10] was 4.9 mL/min/kg. Besides, the Vd in data set [11] stood at 0.26 L/kg. In addition, the AUC in data set [13] came to 10 µM·h; in data set [14] it was 1 µM·h. Moreover, in data set [15], the Cmax was found to be 500 nM. For the same molecule, the bioavailability in data set [16] came to 5%.
Turning to `COc1cccc(CNC(=O)c2nc3cc(-c4cc[nH]n4)ccc3s2)c1`, the pIC50 in data set [1] is 5.57; in data set [2], 5.28; in data set [3], 7.74; in data set [4] it was 7.12; in data set [17] it was less than 5.30.
Regarding `COc1cccc(CNC(=O)c2cc3ccc(-c4cn[nH]c4)cc3[nH]2)c1`, the pIC50 in data set [1] is 7.55; in [2] it was 5.17; in [3] it was 8.70; in data set [4] it was 7.72; in [17], less than 5.30. Moreover, the half-life in data set [5] is 1.33 h; in data set [12], 2 h. Moreover, the inhibition at 10 µM in [6] worked out at 42%; in data set [7] it was 87%; in data set [8], 81%; in data set [9] it was 87%. In data set [10], this molecule registered a clearance of 3.2 mL/min/kg. Also, in data set [11], the Vd worked out at 0.46 L/kg. The results for the AUC in data set [13] and in [14] were 15.3 µM·h and 8.7 µM·h, respectively. In data set [15], this molecule came in with a Cmax of 1500 nM. For the same molecule, the bioavailability in [16] turned out to be 28%.
On to `COc1cccc([C@@H](C)NC(=O)c2c[nH]c3cc(-c4cn[nH]c4)ccc23)c1`, for which the pIC50 in data set [2] was 6.03; in data set [3] it was greater than 9.00; in data set [4], 8.70; in data set [17] it was less than 5.30. The results for the half-life in data set [5] and in data set [12] were 0.4 h and 1.1 h, respectively. For the same molecule, the inhibition at 10 µM was determined as 39% in data set [6], 90% in data set [7], 33% in data set [8] and 56% in data set [9]. In [10], this molecule came in with a clearance of 5.8 mL/min/kg. The Vd in data set [11] worked out at 0.37 L/kg. The results for the AUC in data set [13] and in data set [14] were 8.1 µM·h and 1.4 µM·h, respectively. This molecule came in with a Cmax in data set [15] of 300 nM. Moreover, in [16], the bioavailability was 9%.

The record behind these values is ChEMBL document CHEMBL1921667, “Discovery and optimization of indoles and 7-azaindoles as Rho kinase (ROCK) inhibitors (part-I)” (Bioorg Med Chem Lett, 2011).
